Data on one compound can be found in patent publication US20200362305A1, “EFFICIENT INFECTION OF PRIMARY KER[…] HPV16” (Board of Supervisors of Louisiana State University and …, priority 2018, published 2020).

SMILES strings stand for the structures.

The subject of this experiment is HPV16. As to the kind of experiment: HPV16 infection of primary keratinocytes by ECM-to-cell transfer, cells grown with or without Y-27632. As to conditions: primary cells grown in the presence or absence of the Rho kinase inhibitor Y-27632. In kind it is cell-based, human. As for the experimental part:
Human embryonic kidney 293TT and HeLa cells were obtained from John Schiller and Daniel DiMaio, respectively. They were cultured in DMEM supplemented with 10% FBS, non-essential amino acids, antibiotics, and L-Glutamax. Spontaneously immortalized human keratinocytes HaCaT cells were purchased from the American Type Culture Collection (ATCC) and grown in low glucose DMEM containing 5% FBS and antibiotics. Human foreskin keratinocytes (HFKs) were derived from neonatal human foreskin epithelia and maintained in E medium containing mouse epidermal growth factor (EGF) and mitomycin-treated mouse 3T3 J2 fibroblasts. Pooled primary epithelial keratinocytes were also purchased from the ATCC (PCS-200-010) and used in some experiments. In early experiments where indicated, the inventors maintained and infected primary keratinocytes in the presence of the Rho kinase inhibitor (ROCK) Y-27632, which was reported to increase their lifespan. However, the ROCK inhibitor was excluded prior and during experiments involving long term culturing of infected primary cells. Stable cell lines containing HPV16 episomes were created by co-transfection of pEGFP-N1-HPV16 containing the HPV16 genome (W12 strain) with an expression vector for Cre recombinase and a Neomycin resistance plasmid. […]

As for `C[C@@H](N)[C@H]1CC[C@H](C(=O)Nc2ccncc2)CC1` [Y-27632], the infection efficiency entry is “no significant difference”.
